Laboratory results reported in patent US10231954B2, “Neurodegenerative therapies” (LYTIX BIOPHARMA AS, priority 2014, dated 2019).

How the values were obtained:
Format in all cases: biochemical
PAK2 = PAK2 (Homo sapiens, UniProt Q13177); experiment: Kinase profiling PAK2; details: 100 micromolar inhibitor concentration, 100 is no change; for remaining activity at 100 µM: read-out: residual kinase activity, PAK2
Text: (§1) Any value less that 25 is considered to be highly significant inhibition.

EPH-A4 = EPH-A4 (Homo sapiens, UniProt P54764); experiment: Kinase profiling EPH-A4; details: 100 micromolar inhibitor concentration, 100 is no change; for remaining activity at 100 µM: read-out: residual kinase activity, EPH-A4
Chain of EPH-A4 (P54764 20-986, species assumed): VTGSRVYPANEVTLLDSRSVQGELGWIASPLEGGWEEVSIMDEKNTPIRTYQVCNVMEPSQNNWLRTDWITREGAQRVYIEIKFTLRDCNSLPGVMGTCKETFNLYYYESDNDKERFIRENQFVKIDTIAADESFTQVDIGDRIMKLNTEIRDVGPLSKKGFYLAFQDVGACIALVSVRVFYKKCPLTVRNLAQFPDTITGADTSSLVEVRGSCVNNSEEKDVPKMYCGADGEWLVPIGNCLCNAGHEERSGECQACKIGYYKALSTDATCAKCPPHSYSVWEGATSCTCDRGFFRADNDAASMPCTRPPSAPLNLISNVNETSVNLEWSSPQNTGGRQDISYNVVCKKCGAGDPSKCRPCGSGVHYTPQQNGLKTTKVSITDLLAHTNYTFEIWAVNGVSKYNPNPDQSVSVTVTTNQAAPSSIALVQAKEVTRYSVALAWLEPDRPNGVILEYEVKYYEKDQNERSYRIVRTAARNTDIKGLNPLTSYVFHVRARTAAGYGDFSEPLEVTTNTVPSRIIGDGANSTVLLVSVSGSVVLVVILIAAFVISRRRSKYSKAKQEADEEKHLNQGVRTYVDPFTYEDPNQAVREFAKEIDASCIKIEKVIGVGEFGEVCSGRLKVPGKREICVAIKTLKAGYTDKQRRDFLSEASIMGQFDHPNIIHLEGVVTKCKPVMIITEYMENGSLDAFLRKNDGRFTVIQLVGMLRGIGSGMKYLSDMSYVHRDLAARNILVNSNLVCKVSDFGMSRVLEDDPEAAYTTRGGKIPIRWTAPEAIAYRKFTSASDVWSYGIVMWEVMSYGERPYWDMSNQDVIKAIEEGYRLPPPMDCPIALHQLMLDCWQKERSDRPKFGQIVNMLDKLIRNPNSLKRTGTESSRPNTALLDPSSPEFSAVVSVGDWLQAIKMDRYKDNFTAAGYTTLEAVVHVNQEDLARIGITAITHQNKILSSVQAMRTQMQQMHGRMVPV
Text: as §1

MNK1 = MNK1 (Homo sapiens, UniProt Q9BUB5); experiment: Kinase profiling MNK1; details: 100 micromolar inhibitor concentration, 100 is no change; for remaining activity at 100 µM: read-out: residual kinase activity, MNK1
Chain of MNK1 (Q9BUB5 whole entry, species assumed): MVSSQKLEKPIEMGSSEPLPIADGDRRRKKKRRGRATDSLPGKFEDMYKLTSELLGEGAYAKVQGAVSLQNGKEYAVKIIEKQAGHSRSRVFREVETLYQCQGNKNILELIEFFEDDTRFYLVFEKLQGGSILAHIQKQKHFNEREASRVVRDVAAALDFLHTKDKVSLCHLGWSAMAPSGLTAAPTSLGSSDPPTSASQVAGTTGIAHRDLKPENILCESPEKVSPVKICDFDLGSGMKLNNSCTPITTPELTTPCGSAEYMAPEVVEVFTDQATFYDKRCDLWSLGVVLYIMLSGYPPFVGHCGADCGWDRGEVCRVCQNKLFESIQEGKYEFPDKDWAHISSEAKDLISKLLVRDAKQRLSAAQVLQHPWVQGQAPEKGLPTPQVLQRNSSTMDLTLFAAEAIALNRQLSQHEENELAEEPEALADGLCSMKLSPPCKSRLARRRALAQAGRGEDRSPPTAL
Text: as §1

MELK = MELK (Homo sapiens, UniProt Q14680); experiment: Kinase profiling MELK; details: 100 micromolar inhibitor concentration, 100 is no change; for remaining activity at 100 µM: read-out: residual kinase activity, MELK
Chain of MELK (Q14680 whole entry, species assumed): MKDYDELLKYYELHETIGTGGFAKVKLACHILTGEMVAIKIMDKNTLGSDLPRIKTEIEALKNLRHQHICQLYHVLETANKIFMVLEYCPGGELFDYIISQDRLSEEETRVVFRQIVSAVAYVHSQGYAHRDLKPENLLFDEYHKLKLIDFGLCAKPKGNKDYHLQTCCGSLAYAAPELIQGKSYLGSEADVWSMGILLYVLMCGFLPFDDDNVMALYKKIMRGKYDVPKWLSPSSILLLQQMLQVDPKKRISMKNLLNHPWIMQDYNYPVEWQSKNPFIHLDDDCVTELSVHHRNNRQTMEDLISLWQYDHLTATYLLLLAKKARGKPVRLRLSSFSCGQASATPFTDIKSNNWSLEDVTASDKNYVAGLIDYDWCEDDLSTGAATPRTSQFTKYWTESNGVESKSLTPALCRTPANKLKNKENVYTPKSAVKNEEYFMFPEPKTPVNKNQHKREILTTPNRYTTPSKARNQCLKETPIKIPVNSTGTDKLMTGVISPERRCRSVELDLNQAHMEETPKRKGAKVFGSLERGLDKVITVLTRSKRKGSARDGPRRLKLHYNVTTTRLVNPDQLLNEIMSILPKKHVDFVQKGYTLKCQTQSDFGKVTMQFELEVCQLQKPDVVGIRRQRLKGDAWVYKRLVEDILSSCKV
Text: as §1

MLK1 = MLK1 (Homo sapiens, UniProt P80192); experiment: Kinase profiling MLK1; details: 100 micromolar inhibitor concentration, 100 is no change; for remaining activity at 100 µM: read-out: residual kinase activity, MLK1
Chain of MLK1 (P80192 whole entry, species assumed): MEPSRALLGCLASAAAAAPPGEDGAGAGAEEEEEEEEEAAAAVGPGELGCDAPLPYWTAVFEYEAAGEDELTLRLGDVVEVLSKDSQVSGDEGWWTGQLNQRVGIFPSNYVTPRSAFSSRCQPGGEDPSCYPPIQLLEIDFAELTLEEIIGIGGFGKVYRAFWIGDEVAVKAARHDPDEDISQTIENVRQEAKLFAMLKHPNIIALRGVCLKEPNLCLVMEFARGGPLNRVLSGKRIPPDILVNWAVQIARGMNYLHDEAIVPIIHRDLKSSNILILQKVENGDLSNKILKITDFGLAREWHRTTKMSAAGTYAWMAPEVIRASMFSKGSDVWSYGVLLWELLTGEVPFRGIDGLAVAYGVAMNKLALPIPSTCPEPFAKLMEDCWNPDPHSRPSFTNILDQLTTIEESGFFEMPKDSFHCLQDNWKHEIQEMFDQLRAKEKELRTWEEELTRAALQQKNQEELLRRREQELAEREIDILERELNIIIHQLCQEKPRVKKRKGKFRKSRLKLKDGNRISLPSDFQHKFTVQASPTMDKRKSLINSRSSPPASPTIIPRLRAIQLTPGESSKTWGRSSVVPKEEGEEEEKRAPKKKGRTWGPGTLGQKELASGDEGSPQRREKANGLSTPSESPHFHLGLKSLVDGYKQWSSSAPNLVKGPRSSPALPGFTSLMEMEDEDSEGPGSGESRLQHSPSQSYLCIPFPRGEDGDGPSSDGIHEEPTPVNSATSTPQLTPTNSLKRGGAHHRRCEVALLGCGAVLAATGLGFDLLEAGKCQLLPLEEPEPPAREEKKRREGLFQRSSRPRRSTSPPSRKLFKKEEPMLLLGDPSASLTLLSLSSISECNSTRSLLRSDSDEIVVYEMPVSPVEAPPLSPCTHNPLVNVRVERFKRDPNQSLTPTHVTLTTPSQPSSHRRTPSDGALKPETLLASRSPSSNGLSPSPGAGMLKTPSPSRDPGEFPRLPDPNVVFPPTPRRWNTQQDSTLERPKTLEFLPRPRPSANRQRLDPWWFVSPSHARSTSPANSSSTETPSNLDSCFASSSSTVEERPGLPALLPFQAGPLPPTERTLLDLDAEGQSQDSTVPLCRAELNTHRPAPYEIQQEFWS
Text: as §1

IKKb = biological target: T1, IKKb (Homo sapiens, UniProt O14920); experiment: Kinase profiling IKKb; details: 100 micromolar inhibitor concentration, 100 is no change; for remaining activity at 100 µM: read-out: residual kinase activity, IKKb
T1 sequence (O14920 1-756): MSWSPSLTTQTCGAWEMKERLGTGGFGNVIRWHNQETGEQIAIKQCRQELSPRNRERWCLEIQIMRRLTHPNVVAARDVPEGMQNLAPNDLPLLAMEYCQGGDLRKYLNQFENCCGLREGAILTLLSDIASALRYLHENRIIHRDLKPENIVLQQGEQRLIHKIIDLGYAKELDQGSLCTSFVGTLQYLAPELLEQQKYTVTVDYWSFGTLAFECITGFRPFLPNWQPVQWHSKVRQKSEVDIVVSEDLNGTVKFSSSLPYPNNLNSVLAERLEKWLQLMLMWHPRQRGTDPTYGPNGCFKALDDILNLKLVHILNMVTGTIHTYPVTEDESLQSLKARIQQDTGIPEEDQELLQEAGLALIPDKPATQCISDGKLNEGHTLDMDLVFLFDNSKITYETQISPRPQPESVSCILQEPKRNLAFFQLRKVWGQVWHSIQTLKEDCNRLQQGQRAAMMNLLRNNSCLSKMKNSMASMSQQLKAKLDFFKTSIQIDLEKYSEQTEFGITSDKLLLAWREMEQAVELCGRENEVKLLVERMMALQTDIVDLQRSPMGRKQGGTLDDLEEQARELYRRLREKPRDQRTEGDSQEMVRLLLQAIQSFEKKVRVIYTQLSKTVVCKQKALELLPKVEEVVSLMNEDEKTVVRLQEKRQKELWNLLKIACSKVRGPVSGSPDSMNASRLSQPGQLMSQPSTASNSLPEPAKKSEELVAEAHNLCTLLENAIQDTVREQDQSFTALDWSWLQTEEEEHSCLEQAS
Text: as §1

MAP4K3 = biological target: T2, MAP4K3 (Homo sapiens, UniProt Q8IVH8); experiment: Kinase profiling MAP4K3; details: 100 micromolar inhibitor concentration, 100 is no change; for remaining activity at 100 µM: read-out: residual kinase activity, MAP4K3
T2 sequence (Q8IVH8 1-894): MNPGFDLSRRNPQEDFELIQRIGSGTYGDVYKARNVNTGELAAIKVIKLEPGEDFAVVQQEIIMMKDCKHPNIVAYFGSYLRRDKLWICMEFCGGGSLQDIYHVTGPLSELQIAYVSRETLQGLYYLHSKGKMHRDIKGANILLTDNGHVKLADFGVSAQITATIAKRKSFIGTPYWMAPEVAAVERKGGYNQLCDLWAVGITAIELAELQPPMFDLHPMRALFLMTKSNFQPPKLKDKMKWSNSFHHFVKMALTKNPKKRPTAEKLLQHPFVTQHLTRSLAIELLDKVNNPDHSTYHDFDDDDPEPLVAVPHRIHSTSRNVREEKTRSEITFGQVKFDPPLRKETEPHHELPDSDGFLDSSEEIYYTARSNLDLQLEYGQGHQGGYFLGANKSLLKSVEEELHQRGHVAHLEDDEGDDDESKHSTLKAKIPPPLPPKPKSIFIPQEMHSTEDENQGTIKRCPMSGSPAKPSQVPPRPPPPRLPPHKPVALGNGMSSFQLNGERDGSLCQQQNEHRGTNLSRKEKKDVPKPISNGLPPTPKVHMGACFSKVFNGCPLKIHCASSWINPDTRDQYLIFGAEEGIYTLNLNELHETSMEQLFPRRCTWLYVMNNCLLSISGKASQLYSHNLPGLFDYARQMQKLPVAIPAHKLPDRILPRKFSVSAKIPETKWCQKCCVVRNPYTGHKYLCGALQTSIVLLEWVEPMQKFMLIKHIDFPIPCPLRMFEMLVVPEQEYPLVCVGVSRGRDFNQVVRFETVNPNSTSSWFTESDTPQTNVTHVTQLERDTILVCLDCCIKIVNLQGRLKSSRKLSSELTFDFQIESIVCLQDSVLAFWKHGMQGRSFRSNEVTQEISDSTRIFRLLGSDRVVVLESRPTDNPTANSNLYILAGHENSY
Text: as §1

ULK1 = biological target: T3, ULK1 (Homo sapiens, UniProt O75385); experiment: Kinase profiling ULK1; details: 100 micromolar inhibitor concentration, 100 is no change; for remaining activity at 100 µM: read-out: residual kinase activity, ULK1
T3 sequence (O75385 1-1050): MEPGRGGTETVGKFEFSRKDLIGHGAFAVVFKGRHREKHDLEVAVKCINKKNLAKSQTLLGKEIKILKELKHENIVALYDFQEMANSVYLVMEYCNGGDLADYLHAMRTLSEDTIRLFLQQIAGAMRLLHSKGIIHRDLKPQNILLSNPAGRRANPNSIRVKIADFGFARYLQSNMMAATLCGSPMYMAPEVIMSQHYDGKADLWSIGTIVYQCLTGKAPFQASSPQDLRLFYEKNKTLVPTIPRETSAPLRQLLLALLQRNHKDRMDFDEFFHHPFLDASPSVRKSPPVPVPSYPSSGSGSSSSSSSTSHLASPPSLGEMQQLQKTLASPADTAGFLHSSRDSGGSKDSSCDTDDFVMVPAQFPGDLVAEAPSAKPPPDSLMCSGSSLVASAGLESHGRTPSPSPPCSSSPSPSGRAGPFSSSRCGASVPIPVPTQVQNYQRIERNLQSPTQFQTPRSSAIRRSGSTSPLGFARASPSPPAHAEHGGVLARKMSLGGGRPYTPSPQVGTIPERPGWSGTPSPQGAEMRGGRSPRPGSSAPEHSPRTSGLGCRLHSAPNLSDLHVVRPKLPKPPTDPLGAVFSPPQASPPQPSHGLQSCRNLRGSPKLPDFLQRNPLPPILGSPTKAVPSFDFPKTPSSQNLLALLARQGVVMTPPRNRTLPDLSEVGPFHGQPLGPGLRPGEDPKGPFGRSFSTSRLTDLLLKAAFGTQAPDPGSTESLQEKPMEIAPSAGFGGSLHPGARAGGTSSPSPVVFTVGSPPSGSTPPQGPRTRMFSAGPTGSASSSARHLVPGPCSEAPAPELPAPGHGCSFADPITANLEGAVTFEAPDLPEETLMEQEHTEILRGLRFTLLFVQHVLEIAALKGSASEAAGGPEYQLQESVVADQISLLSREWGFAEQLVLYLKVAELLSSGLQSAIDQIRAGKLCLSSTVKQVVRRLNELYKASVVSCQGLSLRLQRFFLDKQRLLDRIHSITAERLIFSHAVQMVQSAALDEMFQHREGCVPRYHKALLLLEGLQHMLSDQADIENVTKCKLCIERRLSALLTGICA
Text: as §1

Chain of PAK2 (Q13177 whole entry, species assumed): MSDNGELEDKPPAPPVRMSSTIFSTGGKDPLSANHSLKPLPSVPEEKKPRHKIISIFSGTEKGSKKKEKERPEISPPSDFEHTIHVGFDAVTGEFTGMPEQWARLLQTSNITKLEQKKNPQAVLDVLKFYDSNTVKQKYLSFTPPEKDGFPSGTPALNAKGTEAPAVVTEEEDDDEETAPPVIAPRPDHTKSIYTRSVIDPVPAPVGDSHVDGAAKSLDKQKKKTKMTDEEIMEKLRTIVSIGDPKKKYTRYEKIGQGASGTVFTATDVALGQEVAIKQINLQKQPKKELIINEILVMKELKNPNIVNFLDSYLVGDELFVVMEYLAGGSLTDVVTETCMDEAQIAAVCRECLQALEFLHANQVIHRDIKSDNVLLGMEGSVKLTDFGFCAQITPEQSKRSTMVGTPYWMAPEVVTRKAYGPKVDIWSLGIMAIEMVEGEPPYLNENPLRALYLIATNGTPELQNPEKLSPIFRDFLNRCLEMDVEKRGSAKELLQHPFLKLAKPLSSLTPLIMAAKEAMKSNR

| Structure (SMILES) | remaining activity at 100 µM (PAK2) | remaining activity at 100 µM (EPH-A4) | remaining activity at 100 µM (MNK1) | remaining activity at 100 µM (MELK) | remaining activity at 100 µM (MLK1) | remaining activity at 100 µM (IKKb) | remaining activity at 100 µM (MAP4K3) | remaining activity at 100 µM (ULK1) | residual kinase activity, PAK2 (PAK2) | residual kinase activity, EPH-A4 (EPH-A4) | residual kinase activity, MNK1 (MNK1) | residual kinase activity, MELK (MELK) | residual kinase activity, MLK1 (MLK1) | residual kinase activity, IKKb (IKKb) | residual kinase activity, MAP4K3 (MAP4K3) | residual kinase activity, ULK1 (ULK1) |
| --- | --- | --- | --- | --- | --- | --- | --- | --- | --- | --- | --- | --- | --- | --- | --- | --- |
| CC(=O)Nc1nc2cc(C(F)(F)F)ccc2s1 [Compound 03-73] | 85% | 103% | 89% | 91% | 75% | 94% | 63% | 91% |  |  |  |  |  |  |  |  |
| CC(=O)Nc1nc2cc(C)ccc2s1 [Compound 03-76] |  |  |  |  |  |  |  |  | 102 | 91 | 81 | 58 | 57 | 59 | 80 | 82 |
| CC(=O)Nc1nc2cc(F)ccc2s1 [Compound 03-77] | 11% | 100% | 64% | 67% | 58% | 61% | 55% | 83% |  |  |  |  |  |  |  |  |
| O=C(Nc1nc2ccc(O)cc2s1)c1ccncc1 [Compound 08-42] |  |  |  |  |  |  |  |  | 108 | 92 | 53 | 22 | 33 | 82 | 48 | 69 |
| O=C(Nc1nc2ccc(O)cc2s1)c1cccnc1 [Compound 08-44] |  |  |  |  |  |  |  |  | 85 | 89 | 19 | 29 | 13 | 63 | 56 | 78 |
